# Laboratory results from patent publication US20200163984A1, “USE OF ISOVALERYL SPIRAMYCIN I, II AND/OR III IN MANUFACTURING MEDICAMENT FOR TREATING AND/OR PREVENTING TUMOR, AND MEDICAMENT” (SHENYANG FUYANG PHARMACEUTICAL TECHNOLOGY CO., LTD., priority 2017, published 2020).
# Where two headings read alike, the source gives them in different places.
# Columns and labels:
# [1] = test system: transplanted tumor of human pancreatic cancer cell PANC-1; assay: PANC-1 transplanted tumor in nude mice; settings: for Tumor Volume (mm3) (d 1): d1
# Experimental: (§1) Then cell concentration was adjusted to 1×10^7/ml with matrigel, then each nude mouse was inoculated subcutaneously with 0.2 ml of cells at its right armpit and recorded as the first day of inoculation. When the tumor grows to be greater than or equal to 100 mm^3, the mice were randomly divided into 11 groups with 6 mice in each group: a model group, a cyclophosphamide group, isovaleryl spiramycin I groups with doses of 25, 50 and 100 mg/kg, isovaleryl spiramycin II groups with doses of 25, 50 and 100 mg/kg, and isovaleryl spiramycin III groups with doses of 25, 50 and 100 mg/kg. Each group was continuously administered intragastrically for 30 days with a dose of 20 ml/kg. The mice were sacrificed the next day after drug withdrawal and the indicators were tested. The long diameter and short diameter of the tumor, and the body weight of each mouse were recorded every 3 days from drug administration to nude mouse sacrifice.
# (§2) The body weight of the nude mice and the long diameter (a) and short diameter (b) of the transplanted tumor were measured every 3 days, and the tumor volume (v), relative tumor volume (RTV) and relative tumor proliferation rate (T/C) are calculated respectively according to the following formulas, wherein V=a×b^2/2; RTV=V/V0 (V0 is the tumor volume before administration, V is the tumor volume before sacrifice), and T/C (%)=treatment group RTV/model control group RTV×100%.
# (§3) Each mouse was weighed and sacrificed. After the tumor was completely stripped off from the body of the mouse, the non-tumor tissues such as blood stains and fat were removed to weigh the tumor and calculate the tumor growth inhibition rate. The average tumor weight of each group of mice is used as an indicator of efficacy. Tumor growth inhibition rate (%)=(1−the average tumor weight of the treatment group/the average tumor weight of the model group)×100%.
# [2] = test system: transplanted tumor of human gastric adenocarcinoma cell SGC7901; assay: SGC7901 transplanted tumor in nude mice
# Experimental: as §1, §2, §3
# [3] = Thymus index and spleen index of Lewis lung cancer tumor-bearing mice; settings: for Spleen Index (%) / Thymus Index (%): n = 6
# Experimental: In the Lewis lung cancer model, the mice inoculated with the tumor were randomly divided into groups with 10 mice in each group the next day of inoculation. The groups included: a model control group, a positive drug cyclophosphamide control group (CTX, 30 mg/kg), isovaleryl spiramycin I groups with doses of 13, 26 and 52 mg/kg; isovaleryl spiramycin II groups with doses of 13, 26 and 52 mg/kg; isovaleryl spiramycin III groups with doses of 13, 26 and 52 mg/kg. Each group was continuously administered intragastrically for 15 days with a dose of 20 ml/kg.
# [4] = test system: transplanted tumor of human non-small cell lung cancer cell H1299
# Experimental: as §1, with “group:” for “group: a model group, a cyclophosphamide group,”
# as §2, §3
# [5] = Spleen index of A549 lung cancer tumor-bearing mice; settings: for Spleen Index (%): n = 6
# [6] = PANC-1, 12.5 mg/kg (low dose) i.g. 30 days
# [7] = PANC-1, 25 mg/kg (medium dose) i.g. 30 days
# [8] = PANC-1, 50 mg/kg (high dose) i.g. 30 days
# [9] = SGC7901, 12.5 mg/kg (low dose) i.g. 30 days
# [10] = SGC7901, 25 mg/kg (medium dose) i.g. 30 days
# [11] = SGC7901, 50 mg/kg (high dose) i.g. 30 days
# [12] = H1299, 25 mg/kg (low dose) i.g. 30 days
# [13] = H1299, 50 mg/kg (medium dose) i.g. 30 days
# [14] = H1299, 100 mg/kg (high dose) i.g. 30 days
structure (smiles),measurement,setting,value
"O=P1(N(CCCl)CCCl)NCCCO1 (centres unmarked) [Cyclophosphamide, cyclophosphamide, reference compound]",Body Weight (d 1),"[1]; PANC-1, 30 mg/kg i.g. 30 days",22.03 ± 0.70 g
same,Body Weight (d 30),"[1]; PANC-1, 30 mg/kg i.g. 30 days",17.77 ± 0.65 g
same,Inhibition Rate (tumor growth inhibition rate),"[1]; PANC-1, 30 mg/kg i.g. 30 days",70.18%
same,Tumor Weight,"[1]; PANC-1, 30 mg/kg i.g. 30 days",0.81 ± 0.25*8 g
same,Relative Tumor Proliferation Rate (T/C),"[1]; PANC-1 nude mice, 30 mg/kg",29.56%
same,Relative Tumor Volume (RTV),"[1]; PANC-1 nude mice, 30 mg/kg",5.17 ± 0.64
same,Tumor Volume (mm3) (d 1),"[1]; PANC-1 nude mice, 30 mg/kg",103.78 ± 12.65 mm3
same,Tumor Volume (mm3) (d30),"[1]; PANC-1 nude mice, 30 mg/kg",532.62 ± 56.27 mm3
same,Body Weight (d 1),"[2]; SGC7901, 30 mg/kg i.g. 30 days",22.63 ± 1.35 g
same,Body Weight (d 30),"[2]; SGC7901, 30 mg/kg i.g. 30 days",19.85 ± 0.72 g
same,Inhibition Rate (tumor growth inhibition rate),"[2]; SGC7901, 30 mg/kg i.g. 30 days",72.26%
same,Relative Tumor Proliferation Rate (T/C),"[2]; SGC7901, 30 mg/kg i.g. 30 days",30.71%
same,Relative Tumor Volume (RTV),"[2]; SGC7901, 30 mg/kg i.g. 30 days",4.27 ± 2.36
same,Tumor Volume (d 1),"[2]; SGC7901, 30 mg/kg i.g. 30 days",252.63 ± 74.57 mm3
same,Tumor Volume (d 30),"[2]; SGC7901, 30 mg/kg i.g. 30 days",865.27 ± 422.15 mm3
same,Tumor Weight,"[2]; SGC7901, 30 mg/kg i.g. 30 days",0.44 ± 0.41 g
same,spleen index compared with the control group,"[3]; Lewis tumor-bearing mice, cyclophosphamide, P<0.01",significantly lower
same,Spleen Index (%),[3]; dose 26 mg/kg,0.48 ± 0.09 %
same,Thymus Index (%),[3]; dose 26 mg/kg,0.06 ± 0.02 %
same,Body Weight (d 1),"[4]; H1299, 30 mg/kg i.g. 30 days",21.83 ± 0.33 g
same,Body Weight (d 30),"[4]; H1299, 30 mg/kg i.g. 30 days",23.72 ± 2.41 g
same,Inhibition Rate (tumor growth inhibition rate),"[4]; H1299, 30 mg/kg i.g. 30 days",78.00%
same,Relative Tumor Proliferation Rate (T/C),"[4]; H1299, 30 mg/kg i.g. 30 days",22.72%
same,Relative Tumor Volume (RTV),"[4]; H1299, 30 mg/kg i.g. 30 days",2.91 ± 0.95
same,Tumor Volume (d 1),"[4]; H1299, 30 mg/kg i.g. 30 days",135.46 ± 16.48 mm3
same,Tumor Volume (d 30),"[4]; H1299, 30 mg/kg i.g. 30 days",384.21 ± 106.99 mm3
same,Tumor Weight,"[4]; H1299, 30 mg/kg i.g. 30 days",0.38 ± 0.08 g
same,spleen index compared with the control group,"[5]; A549 tumor-bearing mice, cyclophosphamide, P<0.01",significantly lower
same,Spleen Index (%),[5]; dose 26 mg/kg,0.21 ± 0.07 %
"CO[C@@H]1[C@@H](O[C@@H]2O[C@H](C)[C@@H](O[C@H]3C[C@@](C)(O)[C@@H](OC(=O)CC(C)C)[C@H](C)O3)[C@H](N(C)C)[C@H]2O)[C@@H](CC=O)C[C@@H](C)[C@@H](O[C@H]2CC[C@H](N(C)C)[C@@H](C)O2)/C=C/C=C/C[C@@H](C)OC(=O)C[C@H]1O [Isovaleryl spiramycin I, isovaleryl spiramycin I]",Inhibition Rate (tumor growth inhibition rate),[1]; [6],31.10%
same,Tumor Weight,[1]; [6],1.87 ± 0.25 g
same,Inhibition Rate (tumor growth inhibition rate),[1]; [7],51.72%
same,Tumor Weight,[1]; [7],1.31 ± 0.50 g
same,Inhibition Rate (tumor growth inhibition rate),[1]; [8],70.12%
same,Tumor Weight,[1]; [8],0.81 ± 0.08 g
same,Relative Tumor Proliferation Rate (T/C),"[1]; PANC-1, high dose i.g. 30 days",30.80%
same,Relative Tumor Proliferation Rate (T/C),"[1]; PANC-1, low dose i.g. 30 days",71.92%
same,tumor volume and relative tumor volume compared with the model group,"[1]; PANC-1, low, medium and high doses, P<0.05",significantly lower
same,Relative Tumor Proliferation Rate (T/C),"[1]; PANC-1, medium dose i.g. 30 days",49.05%
same,Relative Tumor Proliferation Rate (T/C),"[1]; PANC-1 nude mice, 12.5 mg/kg",71.92%
same,Relative Tumor Volume (RTV),"[1]; PANC-1 nude mice, 12.5 mg/kg",12.59 ± 7.49
same,Tumor Volume (mm3) (d 1),"[1]; PANC-1 nude mice, 12.5 mg/kg",139.97 ± 26.58 mm3
same,Tumor Volume (mm3) (d30),"[1]; PANC-1 nude mice, 12.5 mg/kg",1634.85 ± 789.61 mm3
same,Relative Tumor Proliferation Rate (T/C),"[1]; PANC-1 nude mice, 25 mg/kg",49.05%
same,Relative Tumor Volume (RTV),"[1]; PANC-1 nude mice, 25 mg/kg",8.58 ± 4.41
same,Tumor Volume (mm3) (d 1),"[1]; PANC-1 nude mice, 25 mg/kg",146.57 ± 32.97 mm3
same,Tumor Volume (mm3) (d30),"[1]; PANC-1 nude mice, 25 mg/kg",1162.80 ± 394.71 mm3
same,Relative Tumor Proliferation Rate (T/C),"[1]; PANC-1 nude mice, 50 mg/kg",30.80%
same,Relative Tumor Volume (RTV),"[1]; PANC-1 nude mice, 50 mg/kg",5.39 ± 0.97
same,Tumor Volume (mm3) (d 1),"[1]; PANC-1 nude mice, 50 mg/kg",124.02 ± 15.14 mm3
same,Tumor Volume (mm3) (d30),"[1]; PANC-1 nude mice, 50 mg/kg",656.95 ± 49.58 mm3
same,mouse weight compared with the model group,"[1]; mouse, in vivo",no significant changes
same,Inhibition Rate (tumor growth inhibition rate),[2]; [9],31.56%
same,Relative Tumor Proliferation Rate (T/C),[2]; [9],61.13%
same,Relative Tumor Volume (RTV),[2]; [9],5.37 ± 3.46
same,Tumor Volume (d 1),[2]; [9],412.96 ± 157.62 mm3
same,Tumor Volume (d 30),[2]; [9],2815.50 ± 770.23 mm3
same,Tumor Weight,[2]; [9],1.07 ± 0.53 g
same,Inhibition Rate (tumor growth inhibition rate),[2]; [10],53.13%
same,Relative Tumor Proliferation Rate (T/C),[2]; [10],42.67%
same,Relative Tumor Volume (RTV),[2]; [10],3.98 ± 2.78
same,Tumor Volume (d 1),[2]; [10],258.63 ± 104.26 mm3
same,Tumor Volume (d 30),[2]; [10],1230.76 ± 635.23 mm3
same,Tumor Weight,[2]; [10],0.74 ± 0.52 g
same,Inhibition Rate (tumor growth inhibition rate),[2]; [11],70.78%
same,Relative Tumor Proliferation Rate (T/C),[2]; [11],20.23%
same,Relative Tumor Volume (RTV),[2]; [11],3.64 ± 1.65
same,Tumor Volume (d 1),[2]; [11],279.56 ± 156.70 mm3
same,Tumor Volume (d 30),[2]; [11],630.69 ± 458.86 mm3
same,Tumor Weight,[2]; [11],0.46 ± 0.36 g
same,tumor volume and relative tumor volume compared with the model group,"[2]; SGC7901, low, medium and high doses, P<0.05",significantly lower
same,mouse weight compared with the model group,"[2]; mouse, in vivo",no significant changes
same,Spleen Index (%),[3]; dose 13 mg/kg,0.72 ± 0.21%
same,Thymus Index (%),[3]; dose 13 mg/kg,0.12 ± 0.03%
same,Spleen Index (%),[3]; dose 26 mg/kg,0.62 ± 0.15%
same,Thymus Index (%),[3]; dose 26 mg/kg,0.13 ± 0.04%
same,Spleen Index (%),[3]; dose 52 mg/kg,0.77 ± 0.14 %
same,Thymus Index (%),[3]; dose 52 mg/kg,0.12 ± 0.06%
same,Inhibition Rate (tumor growth inhibition rate),[4]; [12],22.11%
same,Relative Tumor Proliferation Rate (T/C),[4]; [12],89.42%
same,Relative Tumor Volume (RTV),[4]; [12],11.46 ± 3.83
same,Tumor Volume (d 1),[4]; [12],136.07 ± 17.13 mm3
same,Tumor Volume (d 30),[4]; [12],1513.14 ± 387.19 mm3
same,Tumor Weight,[4]; [12],1.36 ± 0.33 g
same,Inhibition Rate (tumor growth inhibition rate),[4]; [13],43.83%
same,Relative Tumor Proliferation Rate (T/C),[4]; [13],49.81%
same,Relative Tumor Volume (RTV),[4]; [13],6.39 ± 1.01
same,Tumor Volume (d 1),[4]; [13],135.51 ± 20.47 mm3
same,Tumor Volume (d 30),[4]; [13],861.71 ± 164.32 mm3
same,Tumor Weight,[4]; [13],0.98 ± 0.27 g
same,Inhibition Rate (tumor growth inhibition rate),[4]; [14],69.95%
same,Relative Tumor Proliferation Rate (T/C),[4]; [14],27.43%
same,Relative Tumor Volume (RTV),[4]; [14],3.52 ± 0.68
same,Tumor Volume (d 1),[4]; [14],137.34 ± 22.95 mm3
same,Tumor Volume (d 30),[4]; [14],470.36 ± 21.77 mm3
same,Tumor Weight,[4]; [14],0.52 ± 0.21 g
same,tumor volume and relative tumor volume compared with the model group,"[4]; H1299, low, medium and high doses, P<0.05",significantly lower
same,mouse weight compared with the model group,"[4]; mouse, in vivo",no significant changes
same,Spleen Index (%),[5]; dose 13 mg/kg,0.32 ± 0.12%
same,Spleen Index (%),[5]; dose 26 mg/kg,0.38 ± 0.09%
same,Spleen Index (%),[5]; dose 52 mg/kg,0.31 ± 0.08%
